Source: ChEMBL document CHEMBL5126523, “Recent advances in DDR (DNA damage response) inhibitors for cancer therapy” (Eur J Med Chem, 2022)

Key:
[1] = molecular target: T1, Poly [ADP-ribose] polymerase 1 (Homo sapiens, UniProt P09874); experiment: Inhibition of N-terminal GST-tagged recombinant human PARP1 (2 to 1014 residues) expressed in Sf9 insect cells incubated for 1 hr by colorimetric assay
[2] = test system: LoVo; experiment: Inhibition of cell growth in human LoVo cells assessed as measuring ATP content incubated for 3 days by Cell Titer Glo assay; format: functional, cell-based; conditions: 72 h
[3] = molecular target: T2, ATR/ATRIP (Homo sapiens, UniProt Q13535); experiment: Inhibition of full-length human recombinant FLAG-tagged ATR/c-Myc-tagged ATRIP using p53 as substrate incubated for 30 mins in presence of ATP by HTRF assay; format: protein-complex assay
[4] = molecular target: Phosphatidylinositol 4,5-bisphosphate 3-kinase catalytic subunit alpha isoform (Homo sapiens, UniProt P42336); experiment: Inhibition of PI3K-alpha (unknown origin) incubated for 40 mins in presence of ATP by ELISA
[5] = test system: MDA-MB-231; experiment: Inhibition of cell proliferation in human MDA-MB-231 cells incubated for 72 hrs by SRB assay; format: functional, cell-based; conditions: MDA-MB-231, 72 h
[6] = test system: HCT-116; experiment: Inhibition of cell proliferation in human HCT-116 cells incubated for 72 hrs by SRB assay; format: functional, cell-based; conditions: HCT-116, 72 h
[7] = test system: HCC1937; experiment: Inhibition of cell proliferation in human HCC1937 cells incubated for 72 hrs by SRB assay; format: functional, cell-based; conditions: HCC1937, 72 h
[8] = molecular target: T2, ATR/ATRIP; experiment: Inhibition of full-length human recombinant FLAG-tagged ATR/c-Myc-tagged ATRIP using p53 as substrate incubated for 30 mins in presence of ATP by fluorescence based assay; format: protein-complex assay
[9] = test system: DU-145; experiment: Inhibition of cell proliferation in human DU-145 cells incubated for 4 days by MTT assay; format: functional, cell-based; conditions: DU-145, 96 h
[10] = test system: NCI-H460; experiment: Inhibition of cell proliferation in human NCI-H460 cells incubated for 4 days by MTT assay; format: functional, cell-based; conditions: NCI-H460, 96 h
[11] = molecular target: T1, Poly [ADP-ribose] polymerase 1; experiment: Inhibition of PARP1 (unknown origin) incubated for 1 hr by chemiluminescence assay
[12] = test system: HCT-116; experiment: Inhibition of cell proliferation in human HCT-116 incubated for 48 hrs by Cell Titer Glo assay; format: functional, cell-based; conditions: HCT-116, 48 h
[13] = test system: NCI-H23; experiment: Inhibition of cell proliferation in human NCI-H23 incubated for 48 hrs by Cell Titer Glo assay; format: functional, cell-based; conditions: NCI-H23, 48 h
[14] = molecular target: T2, ATR/ATRIP; experiment: Inhibition of full-length recombinant human ATR/ATRIP using p53 as substrate incubated for 30 mins in presence of ATP by HTRF assay; format: protein-complex assay
[15] = molecular target: T1, Poly [ADP-ribose] polymerase 1; experiment: Inhibition of PARP1 (unknown origin) by ELISA
[16] = molecular target: T3, DNA-dependent protein kinase catalytic subunit (Homo sapiens, UniProt P78527); experiment: Inhibition of DNA-PK (unknown origin) assessed as inhibition constant using Glu-Pro-Pro-Leu-Ser-Gln-Glu-Ala-Phe-Ala-Asp-Leu-Trp-Lys-Lys-Lys peptide as substrate incubated for 45 mins in presence of [33P]-ATP by scintillation counting method
[17] = AUC (0 to last) in ICR mouse at 3 mg/kg, iv measured for 2 to 1440 mins; format: ADME, organism-based; design: time 2-1440 min, dose 3 mg/kg, route iv; conditions: in vivo
[18] = Half life in ICR mouse at 10 mg/kg, po measured for 5 to 1440 mins; format: ADME, organism-based; conditions: in vivo, time 5-1440 min
[19] = molecular target: Wee1-like protein kinase (Homo sapiens, UniProt P30291); experiment: Inhibition of N-terminal GST-tagged wild-type WEE1 (215 to 646 residues) (unknown origin) expressed in Sf21 insect cells incubated for 60 mins in presence of ATP by ELISA
[20] = Tmax in ICR mouse at 10 mg/kg, po measured for 5 to 1440 mins; format: ADME, organism-based; conditions: in vivo, time 5-1440 min
[21] = Half life in ICR mouse at 3 mg/kg, iv measured for 2 to 1440 mins; format: ADME, organism-based; conditions: in vivo, time 2-1440 min
[22] = AUC (0 to last) in ICR mouse at 10 mg/kg, po measured for 5 to 1440 mins; format: ADME, organism-based; design: time 5-1440 min, dose 10 mg/kg, route po; conditions: in vivo
[23] = Tmax in ICR mouse at 3 mg/kg, iv measured for 2 to 1440 mins; format: ADME, organism-based; conditions: in vivo, time 2-1440 min
[24] = Cmax in ICR mouse at 3 mg/kg, iv measured for 2 to 1440 mins; format: ADME, organism-based; design: time upper 1440 min, dose 3 mg/kg, time lower 2 min, route iv; conditions: in vivo
[25] = Oral bioavailability in ICR mouse at 10 mg/kg measured for 5 to 1440 mins; format: ADME, organism-based; conditions: in vivo, time 5-1440 min
[26] = Cmax in ICR mouse at 10 mg/kg, po measured for 5 to 1440 mins; format: ADME, organism-based; design: time upper 1440 min, dose 10 mg/kg, time lower 5 min, route po; conditions: in vivo
[27] = molecular target: Poly [ADP-ribose] polymerase tankyrase-2 (Homo sapiens, UniProt Q9H2K2); experiment: Inhibition of tankyrase 2 (unknown origin) incubated for 1 hr by chemiluminescence based assay
[28] = molecular target: Poly [ADP-ribose] polymerase tankyrase-1 (Homo sapiens, UniProt O95271); experiment: Inhibition of tankyrase 1 (unknown origin) incubated for 1 hr by chemiluminescence assay
[29] = molecular target: T3, DNA-dependent protein kinase catalytic subunit; experiment: Inhibition of DNA-PK (unknown origin) incubated for 3 hrs by ADP-Glo kinase assay
[30] = Oral bioavailability in BALB/c mouse at 2 mg/kg by LC-MS/MS analysis; format: ADME, organism-based; conditions: in vivo
[31] = molecular target: Serine-protein kinase ATM (Homo sapiens, UniProt Q13315); experiment: Inhibition of ATM in human MCF7 cells […] incubated for 1 hr by Cell Western assay; format: cell-based
[32] = molecular target: T3, DNA-dependent protein kinase catalytic subunit; experiment: Inhibition of full-length human DNA-PK expressed in baculovirus expression system using p53 as substrate incubated for 1 hr in presence of ATP by ELISA
[33] = test system: NCI-H1299; experiment: Inhibition of cell proliferation in human NCI-H1299 cells incubated for 3 days by MTT assay; format: functional, cell-based; conditions: NCI-H1299, 72 h
[34] = molecular target: T2, ATR/ATRIP; experiment: Inhibition of human FLAG-tagged ATR/c-Myc-tagged ATRIP expressed in mammalian expression system using p53 as substrate incubated for 2 hrs by fluorescence based assay

T3 sequence (P78527 whole entry): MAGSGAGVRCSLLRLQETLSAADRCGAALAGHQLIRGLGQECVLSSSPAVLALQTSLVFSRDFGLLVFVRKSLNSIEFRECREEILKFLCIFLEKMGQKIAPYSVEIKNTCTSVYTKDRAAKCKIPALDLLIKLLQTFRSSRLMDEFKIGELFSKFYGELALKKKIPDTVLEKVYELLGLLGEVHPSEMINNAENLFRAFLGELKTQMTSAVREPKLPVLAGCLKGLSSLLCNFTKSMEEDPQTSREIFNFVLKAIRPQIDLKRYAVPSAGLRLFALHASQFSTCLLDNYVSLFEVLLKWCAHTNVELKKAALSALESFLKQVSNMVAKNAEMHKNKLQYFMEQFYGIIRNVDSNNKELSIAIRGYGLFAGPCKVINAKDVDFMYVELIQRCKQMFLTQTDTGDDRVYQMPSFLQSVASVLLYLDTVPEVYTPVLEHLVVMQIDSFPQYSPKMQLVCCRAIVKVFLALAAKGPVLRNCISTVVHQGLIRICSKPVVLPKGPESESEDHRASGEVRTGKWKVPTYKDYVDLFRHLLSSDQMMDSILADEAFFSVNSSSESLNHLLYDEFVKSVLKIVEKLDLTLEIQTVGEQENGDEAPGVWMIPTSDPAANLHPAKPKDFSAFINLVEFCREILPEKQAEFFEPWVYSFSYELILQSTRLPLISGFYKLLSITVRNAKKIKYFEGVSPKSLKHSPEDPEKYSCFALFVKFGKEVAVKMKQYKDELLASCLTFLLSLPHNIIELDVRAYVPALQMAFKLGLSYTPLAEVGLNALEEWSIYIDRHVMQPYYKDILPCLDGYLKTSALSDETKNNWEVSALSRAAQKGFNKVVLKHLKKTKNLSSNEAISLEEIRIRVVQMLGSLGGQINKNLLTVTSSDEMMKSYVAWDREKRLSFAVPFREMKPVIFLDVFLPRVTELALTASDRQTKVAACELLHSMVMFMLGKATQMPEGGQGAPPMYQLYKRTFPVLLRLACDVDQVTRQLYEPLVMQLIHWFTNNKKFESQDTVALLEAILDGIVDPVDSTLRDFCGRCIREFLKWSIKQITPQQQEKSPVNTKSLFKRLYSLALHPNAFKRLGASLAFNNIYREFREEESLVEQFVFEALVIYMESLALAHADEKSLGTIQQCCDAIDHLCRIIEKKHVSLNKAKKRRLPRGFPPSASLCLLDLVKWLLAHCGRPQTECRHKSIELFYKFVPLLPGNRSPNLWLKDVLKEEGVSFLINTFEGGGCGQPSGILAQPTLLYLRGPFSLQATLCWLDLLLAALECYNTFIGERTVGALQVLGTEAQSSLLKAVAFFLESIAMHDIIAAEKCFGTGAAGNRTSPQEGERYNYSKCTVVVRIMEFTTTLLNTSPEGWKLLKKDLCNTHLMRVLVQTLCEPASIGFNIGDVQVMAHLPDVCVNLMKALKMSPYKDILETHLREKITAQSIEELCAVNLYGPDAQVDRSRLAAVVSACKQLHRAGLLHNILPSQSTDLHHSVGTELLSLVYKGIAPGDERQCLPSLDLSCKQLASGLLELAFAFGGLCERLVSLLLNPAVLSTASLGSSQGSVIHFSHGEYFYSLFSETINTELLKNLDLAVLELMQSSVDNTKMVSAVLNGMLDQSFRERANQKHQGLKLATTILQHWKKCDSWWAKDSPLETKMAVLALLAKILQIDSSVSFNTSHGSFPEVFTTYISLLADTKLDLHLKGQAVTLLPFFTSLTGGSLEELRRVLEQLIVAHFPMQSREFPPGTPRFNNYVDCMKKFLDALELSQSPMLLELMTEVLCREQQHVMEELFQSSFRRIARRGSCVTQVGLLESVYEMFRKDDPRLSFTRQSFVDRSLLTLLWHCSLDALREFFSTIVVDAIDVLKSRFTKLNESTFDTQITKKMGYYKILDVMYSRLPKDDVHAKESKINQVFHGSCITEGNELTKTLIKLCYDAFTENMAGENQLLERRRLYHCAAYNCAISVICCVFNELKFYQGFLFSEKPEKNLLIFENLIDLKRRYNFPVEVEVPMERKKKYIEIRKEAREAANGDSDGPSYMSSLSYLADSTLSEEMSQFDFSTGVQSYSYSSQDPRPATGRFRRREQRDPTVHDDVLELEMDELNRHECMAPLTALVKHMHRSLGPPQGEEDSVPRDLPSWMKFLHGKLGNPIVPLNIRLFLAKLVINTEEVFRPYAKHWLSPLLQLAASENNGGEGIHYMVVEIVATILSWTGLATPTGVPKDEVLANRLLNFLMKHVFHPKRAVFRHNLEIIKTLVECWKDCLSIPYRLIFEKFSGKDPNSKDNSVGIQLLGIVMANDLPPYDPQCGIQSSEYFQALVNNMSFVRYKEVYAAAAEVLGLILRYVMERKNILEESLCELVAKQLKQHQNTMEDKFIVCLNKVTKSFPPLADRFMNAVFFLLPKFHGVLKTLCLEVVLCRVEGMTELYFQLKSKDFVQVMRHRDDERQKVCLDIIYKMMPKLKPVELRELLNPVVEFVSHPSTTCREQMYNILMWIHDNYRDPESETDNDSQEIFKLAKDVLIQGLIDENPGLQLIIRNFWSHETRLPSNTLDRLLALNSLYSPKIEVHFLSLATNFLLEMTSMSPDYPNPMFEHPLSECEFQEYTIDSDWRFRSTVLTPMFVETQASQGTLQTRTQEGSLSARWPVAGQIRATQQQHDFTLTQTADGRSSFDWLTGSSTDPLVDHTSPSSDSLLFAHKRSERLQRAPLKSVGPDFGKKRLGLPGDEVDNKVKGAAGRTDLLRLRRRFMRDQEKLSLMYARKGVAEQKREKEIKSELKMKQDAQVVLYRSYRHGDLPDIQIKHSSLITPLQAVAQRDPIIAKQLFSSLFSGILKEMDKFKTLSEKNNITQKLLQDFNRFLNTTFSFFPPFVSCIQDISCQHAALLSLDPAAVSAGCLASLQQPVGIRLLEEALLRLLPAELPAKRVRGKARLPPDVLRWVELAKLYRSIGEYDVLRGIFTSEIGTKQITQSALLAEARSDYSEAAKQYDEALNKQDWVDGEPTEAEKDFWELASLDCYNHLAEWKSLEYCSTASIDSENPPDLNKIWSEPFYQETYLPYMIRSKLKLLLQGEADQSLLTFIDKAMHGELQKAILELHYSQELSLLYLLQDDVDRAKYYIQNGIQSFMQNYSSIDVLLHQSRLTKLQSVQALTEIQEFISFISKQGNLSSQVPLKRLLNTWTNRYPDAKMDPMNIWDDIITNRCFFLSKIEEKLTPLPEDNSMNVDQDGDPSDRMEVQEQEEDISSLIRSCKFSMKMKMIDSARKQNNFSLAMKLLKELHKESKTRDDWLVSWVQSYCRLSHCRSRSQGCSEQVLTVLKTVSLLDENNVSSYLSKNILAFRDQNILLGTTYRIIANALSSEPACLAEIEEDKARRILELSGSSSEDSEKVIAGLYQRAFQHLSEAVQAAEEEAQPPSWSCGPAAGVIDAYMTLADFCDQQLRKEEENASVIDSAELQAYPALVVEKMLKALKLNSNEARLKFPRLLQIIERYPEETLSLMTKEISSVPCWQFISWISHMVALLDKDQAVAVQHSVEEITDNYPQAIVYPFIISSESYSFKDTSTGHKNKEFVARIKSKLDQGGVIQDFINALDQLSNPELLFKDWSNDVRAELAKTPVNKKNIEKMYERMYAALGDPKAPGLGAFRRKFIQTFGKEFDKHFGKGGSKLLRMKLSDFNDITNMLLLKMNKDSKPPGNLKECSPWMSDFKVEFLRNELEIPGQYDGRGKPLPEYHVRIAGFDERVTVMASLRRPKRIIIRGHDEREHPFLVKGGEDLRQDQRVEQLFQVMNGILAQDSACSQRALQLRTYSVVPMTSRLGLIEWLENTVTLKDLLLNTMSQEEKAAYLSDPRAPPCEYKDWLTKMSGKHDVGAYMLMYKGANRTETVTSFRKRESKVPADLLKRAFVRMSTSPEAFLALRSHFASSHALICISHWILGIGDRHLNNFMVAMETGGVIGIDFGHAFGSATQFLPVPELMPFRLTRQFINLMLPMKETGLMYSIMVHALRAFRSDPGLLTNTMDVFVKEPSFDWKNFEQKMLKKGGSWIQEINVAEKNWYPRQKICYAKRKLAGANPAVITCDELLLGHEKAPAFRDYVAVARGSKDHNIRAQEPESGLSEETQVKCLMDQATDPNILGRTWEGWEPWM
T1 sequence (P09874 whole entry, the tested form may be a part): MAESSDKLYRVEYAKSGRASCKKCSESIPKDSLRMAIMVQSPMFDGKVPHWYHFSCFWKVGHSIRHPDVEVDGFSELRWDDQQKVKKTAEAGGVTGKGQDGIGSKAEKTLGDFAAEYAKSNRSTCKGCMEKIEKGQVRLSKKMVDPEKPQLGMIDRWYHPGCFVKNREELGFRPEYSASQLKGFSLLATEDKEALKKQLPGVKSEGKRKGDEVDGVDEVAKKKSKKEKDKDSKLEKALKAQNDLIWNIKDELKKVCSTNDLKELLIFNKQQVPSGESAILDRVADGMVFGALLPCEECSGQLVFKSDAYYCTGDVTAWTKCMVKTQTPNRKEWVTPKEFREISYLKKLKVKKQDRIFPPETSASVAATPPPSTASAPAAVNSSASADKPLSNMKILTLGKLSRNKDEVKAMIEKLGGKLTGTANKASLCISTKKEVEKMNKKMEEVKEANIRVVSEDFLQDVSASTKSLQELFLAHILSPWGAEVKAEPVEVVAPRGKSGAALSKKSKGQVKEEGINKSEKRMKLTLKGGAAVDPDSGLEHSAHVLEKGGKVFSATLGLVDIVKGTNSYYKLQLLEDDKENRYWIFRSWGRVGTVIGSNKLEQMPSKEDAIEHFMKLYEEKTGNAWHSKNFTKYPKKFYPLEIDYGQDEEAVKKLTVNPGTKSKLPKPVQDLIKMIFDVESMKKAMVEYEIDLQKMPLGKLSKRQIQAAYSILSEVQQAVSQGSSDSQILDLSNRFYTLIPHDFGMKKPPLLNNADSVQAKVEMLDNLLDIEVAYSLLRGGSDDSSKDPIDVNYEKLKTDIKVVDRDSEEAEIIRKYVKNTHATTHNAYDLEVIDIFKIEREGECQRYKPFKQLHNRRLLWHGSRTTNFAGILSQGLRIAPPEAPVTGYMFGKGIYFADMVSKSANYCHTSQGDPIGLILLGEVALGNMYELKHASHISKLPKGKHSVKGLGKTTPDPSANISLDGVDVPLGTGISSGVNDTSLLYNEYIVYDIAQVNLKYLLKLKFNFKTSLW

For `NC(=O)c1cccc2cn(-c3ccc([C@]4(F)CCCNC4)cc3)nc12`, the IC50 [1] was < 100 nM.
For `C[C@@H]1COCCN1c1nc(-c2c(N)ncc3[nH]ccc23)nc2c1OC1CC2(S(C)(=O)=O)C1`, the IC50 [2] was 1.36 nM and the IC50 [3] was 62.1 nM.
Compound `Nc1cc(C(F)(F)F)c(-c2nc(N3CCOCC3)nc(N3CCN(C(=O)c4cc(Cc5n[nH]c(=O)c6ccccc56)ccc4F)CC3)n2)cn1` has an IC50 [4] of 81.7 nM, an IC50 [5] of 3290 nM and an IC50 [6] of 342 nM. It also gave an IC50 [7] of 264 nM.
For `Cc1ccc(-c2cc(N3CCOC[C@H]3C)nn3c(-c4ccn[nH]4)cnc23)cn1`, the IC50 [8] was 379 nM, the IC50 [9] was 914 nM and the IC50 [10] was 322 nM.
`Nc1ncc(-c2nc(N3CCOCC3)nc(N3CCN(C(=O)c4cc(Cc5n[nH]c(=O)c6ccccc56)ccc4F)CC3)n2)cn1` showed an IC50 [11] of 0.78 nM, an IC50 [4] of 94 nM and an IC50 [5] of 1190 nM. For the same compound, the IC50 [6] was 1050 nM and the IC50 [7] was 426 nM.
For `C[C@@H]1COCCN1c1cc(-c2ccnn2C)nc(-n2c(NCCO)nc3ccc(F)cc32)n1`, the IC50 [12] was < 10000 nM, the IC50 [13] was < 10000 nM and the IC50 [14] was < 500 nM.
Work on `NC(=O)c1cccc2cc(C(=O)N3CCN(c4nc(-c5cnc(N)nc5)nc(N5CCOCC5)n4)CC3)oc12` yielded an IC50 [11] of 6.3 nM, an IC50 [4] of 5.8 nM and an IC50 [5] of 4120 nM. For the same compound, the IC50 [6] was 94 nM and the IC50 [7] was 61 nM.
For `C[C@H]1CN(C(=O)c2cc(Cc3n[nH]c(=O)c4c3CCCC4)ccn2)CCN1C(=O)C(=O)C1CC1`, the IC50 [15] was < 200 nM.
In the case of `O=c1[nH]c(N[C@H]2CC[C@@H](Oc3cc(N4CCOCC4)cc4nccnc34)CC2)ncc1F`, the Ki [16] is reported as < 100 nM.
In the case of `C=CCn1c(=O)c2cnc(Nc3ccc(N4C[C@H]5CN(C)C[C@H]5C4)cc3)nc2n1-c1ccc(C(C)(C)O)cn1`, the AUC(0-t) [17] is reported as 191 ng·h/mL, the half-life [18] is reported as 1.32 h and the IC50 [19] is reported as 1.83 nM. It also gave a Tmax [20] of 1.33 h, a half-life [21] of 0.92 h and an AUC(0-t) [22] of 409 ng·h/mL. The Tmax [23] was 1.8 min, the Cmax [24] was 241 nM and the bioavailability [25] was 64.3%. The Cmax [26] was 121 nM.
For `COc1ccc(NC(=O)c2ccc(NC(=O)N3CCN(C(=O)c4cc(Cc5n[nH]c(=O)c6ccccc56)ccc4F)CC3)cc2)cc1`, the IC50 [27] was 4.15 nM, the IC50 [11] was 0.25 nM and the IC50 [28] was 13.5 nM.
With `COc1ccc(Nc2cc(-c3ncnc4cc(N5CCOCC5)ccc34)c(F)cc2Cl)nn1` the IC50 [29] was 165 nM.
Work on `Cc1cc2ncnn2cc1Nc1ncc2c(n1)n(N1CCOCC1)c(=O)n2C` yielded a bioavailability [30] of 96.4%.
For `CCc1ncc(S(=O)(=O)Nc2cc(-c3ccc4ncc5c(c4c3)C3(CCC3)C(=O)N5C)cnc2OCCCN(C)C)s1`, the IC50 [31] was 1 nM and the IC50 [32] was 1 nM.
In the case of `CC(C)(C)CC(=O)C(=O)N1CCN(C(=O)c2cc(Cc3n[nH]c(=O)c4c3CCCC4)ccc2F)CC1`, the IC50 [15] is reported as < 200 nM.
With `C=CCn1c(=O)c2cnc(Nc3ccc(N4CCN(C)CC4)cc3)nc2n1-c1cccc(C(C)(C)O)n1` [ADAVOSERTIB] the IC50 [33] was 284 nM.
Work on `Nc1cc(C(F)(F)F)c(-c2nc3c(c(N4CCOCC4)n2)CCN(C(=O)c2cc(Cc4n[nH]c(=O)c5ccccc45)ccc2F)C3)cn1` yielded an IC50 [5] of 155 nM, an IC50 [6] of 775 nM and an IC50 [7] of 504 nM.
`C[C@@H]1COC[C@H]2COc3c(nc(-c4ccnc5[nH]ccc45)nc3C3(C#N)CC3)N21` showed an IC50 [2] of 456 nM and an IC50 [34] of 10 nM.
With `Cc1ncc(-c2cc(NC[C@@H](C)c3cccc4c(-c5noc(=O)[nH]5)ccnc34)ncn2)cn1` the IC50 [29] was 39 nM.
